pIC50: −log10 of the molar value.

Data set [1] deals with Hep 3B2. Put plainly: Induction of apoptosis in human Hep3B cells assessed as late apoptotic cells at 2.5 uM measured after 48 hrs by Annexin V/FITC-PI staining based flow cytometry assay (reference value: 3.14%). In kind it is functional. (Flow cytometry measures light scatter and fluorescence of single cells or particles in a stream.)
The test system of data set [2] is Hep 3B2. Nature of the data set: Induction of apoptosis in human Hep3B cells assessed as late apoptotic cells at 1 uM measured after 48 hrs by Annexin V/FITC-PI staining based flow cytometry assay (reference value: 3.14%). In kind it is functional.
Data set [3] has as its system Hep 3B2. Put plainly: Induction of cell cycle arrest in human Hep3B cells assessed as accumulation at G2/M phase at 10 uM incubated for 48 hrs by flow cytometry analysis (reference value: 8.59 %). The format is functional.
The test system of data set [4] is hERG. Put plainly: Selectivity ratio of IC50 for inhibition of hERG by automated patch clamp analysis to IC50 for antiproliferative activity against human HepG2 cells assessed as reduction in cell viability incubated for 72 hrs by MTT assay. In kind it is toxicity, cell-based. To be noted: read-out: Ratio IC50. For orientation: The hERG channel carries a current that helps repolarise heart muscle cells.

The target of data set [5] is Voltage-gated inwardly rectifying potassium channel KCNH2 (Homo sapiens, UniProt Q12809). Put plainly: Inhibition of hERG by automated patch clamp analysis. In kind it is toxicity.
Voltage-gated inwardly rectifying potassium channel KCNH2, sequence (Q12809 whole entry): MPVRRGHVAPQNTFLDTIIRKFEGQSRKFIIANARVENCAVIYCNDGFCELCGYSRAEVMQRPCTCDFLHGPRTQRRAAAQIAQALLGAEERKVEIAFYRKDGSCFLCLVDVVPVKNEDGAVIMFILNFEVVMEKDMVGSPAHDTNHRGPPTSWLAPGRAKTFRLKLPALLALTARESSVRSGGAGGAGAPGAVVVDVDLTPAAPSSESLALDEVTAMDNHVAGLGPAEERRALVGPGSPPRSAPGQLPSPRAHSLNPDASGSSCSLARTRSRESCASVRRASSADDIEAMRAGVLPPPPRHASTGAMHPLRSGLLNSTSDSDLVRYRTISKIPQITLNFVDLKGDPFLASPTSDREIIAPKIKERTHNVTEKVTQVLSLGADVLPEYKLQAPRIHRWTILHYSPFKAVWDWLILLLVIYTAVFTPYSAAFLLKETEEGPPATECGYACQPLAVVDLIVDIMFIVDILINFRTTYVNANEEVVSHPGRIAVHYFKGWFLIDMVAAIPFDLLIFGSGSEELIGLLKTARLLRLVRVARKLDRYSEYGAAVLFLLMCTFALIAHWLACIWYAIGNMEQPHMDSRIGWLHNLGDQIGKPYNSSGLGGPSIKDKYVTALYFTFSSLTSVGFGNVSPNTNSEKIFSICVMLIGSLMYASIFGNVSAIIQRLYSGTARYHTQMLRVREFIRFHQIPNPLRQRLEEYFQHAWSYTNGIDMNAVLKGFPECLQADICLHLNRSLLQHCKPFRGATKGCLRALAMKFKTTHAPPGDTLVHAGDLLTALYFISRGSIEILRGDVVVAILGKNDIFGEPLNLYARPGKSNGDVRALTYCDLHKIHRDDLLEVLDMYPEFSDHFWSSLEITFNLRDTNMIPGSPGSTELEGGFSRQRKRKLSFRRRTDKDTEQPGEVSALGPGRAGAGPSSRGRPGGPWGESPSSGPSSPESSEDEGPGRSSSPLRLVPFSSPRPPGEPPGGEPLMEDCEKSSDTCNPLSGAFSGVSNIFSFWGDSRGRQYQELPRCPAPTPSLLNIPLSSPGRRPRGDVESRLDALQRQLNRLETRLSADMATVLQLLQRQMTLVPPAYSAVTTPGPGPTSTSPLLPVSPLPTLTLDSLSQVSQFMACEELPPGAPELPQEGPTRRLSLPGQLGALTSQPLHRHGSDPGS
Data set [6] has as its system Hep 3B2. Nature of the data set: Induction of apoptosis in human Hep3B cells assessed as viable cells at 1 uM measured after 48 hrs by Annexin V/FITC-PI staining based flow cytometry assay (reference value: 90.09%). In kind it is functional. Particulars: read-out: Activity.
In data set [7] the target is T1, 14-3-3 protein eta (Homo sapiens) (UniProt Q04917).
T1 sequence (whole entry): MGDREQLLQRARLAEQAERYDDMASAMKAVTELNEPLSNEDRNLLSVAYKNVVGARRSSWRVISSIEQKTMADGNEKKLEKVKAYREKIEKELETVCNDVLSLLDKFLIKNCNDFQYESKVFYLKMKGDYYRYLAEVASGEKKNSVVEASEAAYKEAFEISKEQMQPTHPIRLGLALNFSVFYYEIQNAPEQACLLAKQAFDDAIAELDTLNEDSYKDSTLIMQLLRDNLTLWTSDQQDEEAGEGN
Put plainly: Inhibition of 14-3-3 eta in human Hep3B cells assessed as reduction in AKT phosphorylation at S473 residue measured after 24 hrs by western blot analysis. The format is cell-based. Particulars: dose 0.5-5 µM, DDE = dose-dependent effect. Background: In western blotting, separated proteins are transferred to a membrane and probed.

Data set [8] relates to Hep 3B2. Put plainly: Induction of cell cycle arrest in human Hep3B cells assessed as accumulation at S phase at 10 uM incubated for 48 hrs by flow cytometry analysis (reference value: 30.56 %). The format is functional.
In data set [9] the test system is Hep 3B2. Put plainly: Induction of apoptosis in human Hep3B cells assessed as late apoptotic cells at 10 uM measured after 48 hrs by Annexin V/FITC-PI staining based flow cytometry assay (reference value: 3.14%). In kind it is functional.
In a further data set the test system is SMMC-7721. Put plainly: Antiproliferative activity against human SMMC-7721 cells assessed as reduction in cell viability incubated for 72 hrs by MTT assay. To be noted: SMMC-7721, 72 h. In kind it is functional, cell-based.
Another data set concerns SNU-387. Put plainly: Antiproliferative activity against human SNU-387 cells assessed as reduction in cell viability incubated for 72 hrs by MTT assay. The format is functional, cell-based. Particulars: SNU-387, 72 h.
Data set [10] concerns Hep 3B2. Nature of the data set: Induction of cell cycle arrest in human Hep3B cells assessed as accumulation at G0/G1 phase at 2.5 uM incubated for 48 hrs by flow cytometry analysis (reference value: 60.85 %). In kind it is functional.
Data set [11] concerns Hep 3B2. Put plainly: Induction of cell cycle arrest in human Hep3B cells assessed as accumulation at G0/G1 phase at 10 uM incubated for 48 hrs by flow cytometry analysis (reference value: 60.85 %). The format is functional.
For data set [12], the system named is Hep 3B2. Nature of the data set: Induction of apoptosis in human Hep3B cells assessed as upregulation of cleaved caspase-8 expression measured after 48 hrs by Western blot analysis. The format is functional, cell-based. To be noted: dose 5-20 µM, DDE = dose-dependent effect.
The target of data set [13] is T1, 14-3-3 protein eta (Homo sapiens). Put plainly: Inhibition of 14-3-3 eta in human Hep3B cells assessed as reduction in ERK phosphorylation measured after 24 hrs by western blot analysis. The format is cell-based. To be noted: dose 0.5-5 µM, DDE = dose-dependent effect.
The subject of data set [14] is Hep 3B2. Nature of the data set: Induction of apoptosis in human Hep3B cells assessed as viable cells at 2.5 uM measured after 48 hrs by Annexin V/FITC-PI staining based flow cytometry assay (reference value: 90.09%). The format is functional. To be noted: read-out: Activity.
Data set [15] deals with hERG. Nature of the data set: Selectivity ratio of IC50 for inhibition of hERG by automated patch clamp analysis to IC50 for antiproliferative activity against human Hep3B cells assessed as reduction in cell viability incubated for 72 hrs by MTT assay. In kind it is toxicity, cell-based. Particulars: read-out: Ratio IC50.
In data set [16] the test system is Hep 3B2. Nature of the data set: Induction of cell cycle arrest in human Hep3B cells assessed as accumulation at S phase at 1 uM incubated for 48 hrs by flow cytometry analysis (reference value: 30.56 %). The format is functional.
Data set [17] has as its system Hep 3B2. Put plainly: Induction of apoptosis in human Hep3B cells assessed as necrotic cells at 10 uM measured after 48 hrs by Annexin V/FITC-PI staining based flow cytometry assay (reference value: 0.12%). The format is functional.
The test system of data set [18] is Hep 3B2. Nature of the data set: Induction of apoptosis in human Hep3B cells assessed as early apoptotic cells at 1 uM measured after 48 hrs by Annexin V/FITC-PI staining based flow cytometry assay (reference value: 6.65%). The format is functional.

Usually pIC50 stands for the negative decadic logarithm of the IC50, by convention in mol/L. In the case of `COc1cccc(CNCc2c(C(=O)O)n(Cc3ccc(C)cc3)c3cc(C(C)C)ccc23)c1`, the Activity turned out to be 5.02% in the data set on Hep 3B2 [1]; 4.86% with Hep 3B2 [2]; 2.59% in the data set on Hep 3B2 [3]; 29.71% in the data set with Hep 3B2 [8]; 13.52% in the data set with Hep 3B2 [9]; 59.12% in the data set on Hep 3B2 [10]. The Activity was 67.7% in the data set with Hep 3B2 [11]; “Dde” with Hep 3B2 [12]; 35.59% with Hep 3B2 [16]; 2.82% in the data set on Hep 3B2 [17]; 6.8% with Hep 3B2 [18]. The selectivity ratio at 72 h in the data set on hERG [4] amounted to 10.1; in the data set with hERG [15], 8.5. For the same molecule, the pIC50 is 4.46 in [5], 5.53 in the data set with SMMC-7721 and 5.26 with SNU-387. Besides, the viability at 1 µM in the data set on Hep 3B2 [6] came to 88%. In addition, the inhibition result in data set [7] and in data set [13] was “Dde” in each case. Further, in the data set on Hep 3B2 [14], the viability at 2.5 µM worked out at 86%.

The values above are taken from ChEMBL document CHEMBL5113390, “Design, synthesis and antitumor evaluation of novel 1H-indole-2-carboxylic acid derivatives targeting 14-3-3η protein” (Eur J Med Chem, 2022).
